Counter-ions that a name gives are not always drawn.
What follows are molecules tested against neuronal nicotinic receptors (assay: Displacement of [3H]-MCC or [3H]-cytisine from neuronal nicotinic receptors, whole rat brain membranes). Details: Table 1; hydrochloride salt; read-out: Nicotinic Receptor Ki.
Type: binding
Procedure: Binding of [^3 H]-methylcarbamylcholine ([^3 H]-MCC) or [^3 H]-cytisine ([^3 H]-CYT) to nicotinic receptors was accomplished using crude synaptic membrane preparations from whole rat brain (Snyder and Enna, Brain Research, 1975, 100:81). Washed membranes were stored at -80° C. prior to use. Frozen aliquots were slowly thawed and resuspended in 20 volumes of buffer (containing: 120 mM NaCl, 5 mM KCl, 2 mM MgCl2, 2 mM CaCl2 and 50 mM Tris-Cl, pH 7.4 @4° C). After centrifuging at 20,000 X g for 15 minutes, the pellets were resuspended in 30 volumes of buffer. Homogenate (containing 125-150 μg protein) was added to triplicate tubes containing concentrations of test compound and [^3 H]-MCC (3 nM) in a final volume of 500 μL. Samples were incubated for 60 minutes at 4° C., then rapidly filtered through Whatman GF/B filters presoaked in 0.5% polyethylimine using 3×4 mL of ice-cold buffer. Alternately, homogenate and test compound were incubated for 75 min with [^3 H]-CYT (1.3 nM), then rapidly filtered, as described above. The filters are counted in 4 mL of Ecolume® (ICN). […] IC50 values were determined with the ALLFIT nonlinear least squares curve-fitting program and IC50 values were converted to Ki values using the Cheng and Prusoff correction (Ki =IC50 /(1+[ligand]/Kd of ligand)). Alternately, data were expressed as a percentage of the total specific binding.
Molecule CCc1cc([C@@H]2CCCN2C)on1 [Example 12, 3-Ethyl-5-(1-methyl-2(S)-pyrrolidinyl)-isoxazole hydrochloride salt] has a Ki of 7 nM. With Cc1cc([C@@H]2CCCN2C)on1 [Example 11, 3-Methyl-5-(1-methyl-2(S)-pyrrolidinyl)-isoxazole hydrochloride salt] the Ki was 3 nM. CN1CCC[C@H]1c1cc(Cc2ccccc2)no1 [Example 8, 3-Benzyl-5-(1-methyl-2(S)-pyrrolidinyl)-isoxazole hydrochloride salt] showed a Ki of 13 nM.

Same assay, conditions: Table 1; oxalate salt; read-out: Nicotinic Receptor Ki
Molecule CN1CCC[C@H]1c1cc(Cc2ccccc2)no1 [Example 7, 3-Benzyl-5-(1-methyl-2(S)-pyrrolidinyl)-isoxazole oxalate salt] has a Ki of 18 nM.

Same assay, conditions: Table 1; read-out: Nicotinic Receptor Ki
CN1CCC[C@H]1c1cc(Br)no1 [Example 27, 3-Bromo-5-(1-methyl-2(S)-pyrrolidinyl)-isoxazole hydrochloride] gave a Ki of 7.7 nM. For CCc1c(C)noc1[C@@H]1CCCN1C [Example 37, 3-methyl-5-(1-methyl-2(S)-pyrrolidinyl)-4-ethyl-isoxazole hydrochloride], the Ki was 105 nM. In the case of Cc1cc([C@@H]2C[C@@H](C)CN2C)on1 [Example 28d, trans-5-(1-methyl-4-methyl-2(S)-pyrrolidinyl)-3-methyl-isoxazole hydrochloride], the Ki is reported as 17.1 nM. Molecule Cc1cc([C@H]2C[C@H](O)CN2C)on1 (relative stereo) [Example 21, 3-Methyl-5-(trans-4-hydroxy-1-methyl-2-pyrrolidinyl)-isoxazole oxalate salt] has a Ki of 114 nM. CCCCc1cc([C@@H]2CCCN2C)on1 [Example 10, 3-n-Butyl-5-(1-methyl-2(S)-pyrrolidinyl)-isoxazole hydrochloride salt] was tested, and the Ki was 24 nM. Work on Cc1cc([C@@H]2CCCN2C)[nH]n1 [Example 43, 3-methyl-5-(1-methyl-2(S)-pyrrolidinyl)-pyrazole hydrochloride] yielded a Ki of 228 nM. Cc1cc([C@H]2CCCN2)sn1 [Example 19, 3-methyl-5-((2(R)-pyrrolidinyl)-isothiazole hydrochloride] showed a Ki of 228 nM. Cc1cc([C@@H]2CCCN2C)n(-c2ccccc2)n1 [Example 42, 3-methyl-5-(1-methyl-2(S)-pyrrolidinyl)-1-phenyl-pyrazole hydrochloride] gave a Ki of 145 nM. Work on CCCc1cc([C@@H]2CCCN2C)on1 [Example 9, 5-(1-Methyl-2(S)-pyrrolidinyl)-3-propyl-isoxazole hyrochloride salt] yielded a Ki of 14 nM. Molecule Cc1cc([C@@H]2CCCN2)on1 [Example 1, 3-Methyl-5-(2(S)-pyrrolidinyl)-isoxazole oxalate salt] has a Ki of 289 nM. In the case of COCc1cc([C@@H]2CCCN2C)on1 [Example 20, 3-Methoxymethyl-5-(1-methyl-2(S)-pyrrolidinyl)-isoxazole fumarate salt], the Ki is reported as 22 nM. Molecule Cc1noc([C@@H]2CCCN2C)c1Cc1ccccc1 [Example 36, 3-methyl-5-(1-methyl-2(S)-pyrrolidinyl)-4-(phenylmethyl-isoxazole hydrochloride] has a Ki of 77.6 nM. For CN1CCC[C@H]1c1cc(C(F)(F)F)no1 [Example 32, 3-trifluoromethyl-5-(1-methyl-2(S)-pyrrolidinyl)-isoxazole, hydrochloride], the Ki was 6.1 nM. Molecule Cc1cc([C@H]2CCCN2)on1 [Example 15, 3-Methyl-5-(2(R)-pyrrolidinyl)-isoxazole benzoate salt] has a Ki of 7 nM. Cc1cc([C@H]2C[C@H](C)CN2C)on1 (relative stereo) [Example 24, 3-Methyl-5-(trans-1,4-dimethyl-2-pyrrolidinyl)-isoxazole oxalate salt] showed a Ki of 24 nM. In the case of Cc1cc([C@H]2C[C@H](CF)CN2C)on1 (relative stereo) [Example 22, 3-Methyl-5-(trans-4-fluoromethyl-1-methyl-2-pyrrolidinyl)-isoxazole hydrochloride], the Ki is reported as 183 nM. With CCN1C[C@H](C)C[C@H]1c1cc(C)no1 [Example 28c, trans-5-(1-ethyl-4-methyl-2(S)-pyrrolidinyl)-3-methyl-isoxazole hydrochloride] the Ki was 21 nM. For CCN1CCC[C@H]1c1cc(C)no1 [Example 13, 5-(1-Ethyl-2(S)-pyrrolidinyl)-3-methyl-isoxazole hydrochloride salt], the Ki was 34 nM. Cc1cc([C@@H]2CCN2C)on1 [Example 41, 3-methyl-5-(1-methyl-2(S)-azetidinyl)-isoxazole hydrochloride] gave a Ki of 2.5 nM. Cc1cc([C@H]2CCCN2)on1 [Example 14] was tested, and the Ki was 10 nM. Cc1cc([C@@H]2CCCCN2)on1 [Example 40, 3-methyl-5-(2(S)-piperidinyl)-isoxazole hydrochloride] was tested, and the Ki was 283 nM. Work on CCc1cc([C@H]2CCCN2)on1 [Example 17, 3-Ethyl-5-(2(R)-pyrrolidinyl)-isoxazole oxalate salt] yielded a Ki of 12 nM. CCc1cc([C@@H]2CCCN2)on1 [Example 3, 3-Ethyl-5-(2(S)-pyrrolidinyl)-isoxazole oxalate salt] showed a Ki of 621 nM. In the case of Cc1cc([C@H]2CC[C@H](C)N2C)on1 (relative stereo) [Example 25, 3-Methyl-5-(trans-1,5-dimethyl-2-pyrrolidinyl)-isoxazole oxalate salt], the Ki is reported as 289 nM. Cc1cc([C@H]2CCCN2C)on1 [Example 16, 3-Methyl-5-(1-methyl-2(R)-pyrrolidinyl)-isoxazole hydrochloride salt] gave a Ki of 55 nM. In the case of Cc1cc([C@H]2CCCCN2C)on1 [Example 39, 3-methyl-5-(1-methyl-2(R)-piperidinyl)-isoxazole hydrochloride], the Ki is reported as 357 nM. COc1cc([C@@H]2CCCN2C)on1 [Example 29, 5-(1-methyl-2(S)-pyrrolidinyl-3-methoxy-isoxazole hydrochloride] gave a Ki of 62 nM. Cc1cc([C@H]2CCCCN2)on1 [Example 38, 3-methyl-5-(2(R)-piperidinyl)-isoxazole hydrochloride] gave a Ki of 386 nM.

Reference: US5409946A, “Isoxazole, isothiazole and pyrazole compounds that enhance cognitive function” (Abbott Laboratories, priority 1993, dated 1995)
